Test system: red blood cells
Assay: Red blood cell haemolysis assay
Assay type: cell-based
Source text: In order to determine the relative toxicity or irritancy levels of various toothpastes and mouthwashes, a red blood cell heamolysis assay was employed to obtain information on the effects of these substances on cell membrane integrity. The Red Blood Cell assay provides a simple test system that uses easily obtainable cells and is characterized by defined and objective endpoints. […] Haemoglobin release is a useful endpoint of cell membrane integrity. It is therefore highly suitable as a screening assay in a first-order in vitro test battery for the assessment of potential toxicity to tissue, including tissues of the oral cavity.
To assess the membranolytic activity of test materials. The test materials are incubated with isolated red blood cells. The degree of damage to the red blood cell membrane is quantified by spectro-photometric measurement of released haemoglobin.
Red blood cells are isolated concentrations of the test materials defined from results of a range finding study; released is measured at 541 nm and the concentration resulting in 50% hemolysis (relative to a totally lysed sample) calculated. […]
(b) After the final centrifugation, the packed cell volume is diluted with phosphate buffered saline (PBS) to give an approximate 2% erythrocyte suspension. […] The exact volume of PBS required for a 2% suspension is calculated from the optical density and adjusted accordingly. […]

SMILES	% Hemolysis (Individual Components) (0.05% CPC) [%]	% Hemolysis (Individual Components) (0.10% DHA) [%]
CCCCCCCCCCCCCCCC[n+]1ccccc1 [CPC, Cetylpyridinium Chloride]	92.36	–
CC(=O)C1C(=O)C=C(C)OC1=O (centres unmarked) [DHA, dehydroacetic acid]	–	3.24
